Measured values published in US20220088056A1, “COMBINATION FOR TREATING CANCER” (NITTO DENKO CORPORATION, priority 2018, published 2022).

Experiments:
[1] = system: human normal dermal fibroblasts NHDF-Ad-Der Fibroblasts; experiment: Influence on proliferation of normal cells, live and dead cell count with Hoechst 33342 / propidium iodide (Example 5); type: cell-based; settings: 1.1+1.1 pmol, day 4 after transfection, compared with control (Compound C and Compound I), FIG. 5
Protocol: A combination of a BcL-XL inhibitor and a miR-345-related molecule was tested for the presence or absence of its influence on the proliferation of normal cells.
The BcL-XL inhibitor used was Compound A, and the miR-345-related molecule used was Compound B. Compound C was used as a negative control of the BcL-XL inhibitor, and Compound I was used as a negative control of the miR-345-related molecule.
The normal cells used were human normal dermal fibroblasts NHDF-Ad-Der Fibroblasts (Lonza Group AG, #CC-2511). The cells were cultured in Fibroblast Basal Medium (FBM™, Lonza Group AG, #CC-3131) containing FGM™-2 SingleQuots™ (Lonza Group AG, #CC-4126) under conditions of 37° C. and 5% CO2.
Transfection with the BcL-XL inhibitor and/or the miR-345-related molecule was performed as follows: on the day before transfection, NHDF was seeded at 0.15×10^4 cells/well to a 96-well tissue culture plastic dish. […] Live and dead cell numbers were counted using Celigo® Image Cytometer (Nexcelom Bioscience, LLC, #Celigo-106-0448) in which the number of cells stained with Hoechst 33342 was regarded as the total of the live and dead cell numbers and the number of cells stained with propidium iodide was regarded as the dead cell number.

[2] = system: hsa-miR-345-overexpressing HCT116 cells or control HCT116 cells; experiment: Cell number counting in hsa-miR-345-overexpressing versus control HCT116 cells after transfection with BcL-XL inhibitor (Example 3); type: cell-based; settings: 25 pmol; hsa-miR-345-overexpressing vs hsa-miR-345 wild-type HCT116 line; days 1 and 4 after transfection; FIG. 3
Protocol: The anticancer activity of a BcL-XL inhibitor was evaluated in cancer cells in which miR-345 was overexpressed by a miR-345-related molecule.
The miR-345-related molecule used was Expression plasmid for human microRNA MIR345 (MI0000825, OriGene Technologies, Inc., Compound F).
A cell line overexpressing miR-345 was established by introducing Compound E to hsa-miR-345 wild-type HCT116 cells using Lipofectamine 3000 (Invitrogen Corp.), and picking up a single clone by drug selection. In the experiment, a clone was used which was confirmed to have the increased expression of hsa-miR-345-5p by qPCR. A hsa-miR-345 wild-type HCT116 cell line as a control was established by introducing Expression plasmid pCMV-MIR Vector (PCMVMIR, OriGene Technologies, Inc., Compound G) to hsa-miR-345 wild-type HCT116 cells using Lipofectamine 3000 (Invitrogen Corp.), and picking up a single clone by drug selection.
Transfection with Compound A was performed as follows: on the day before transfection, the hsa-miR-345-overexpressing HCT116 cells or the control HCT116 cells were seeded at 0.1×10^5 cells/well to a 6-well tissue culture plastic dish. 25 pmol of Compound A was added into 250 μL of Opti-MEM I Reduced Serum Medium (Invitrogen Corp.) and gently mixed. […] On days 1 and 4 after the transfection, the cell number was counted. […]

For “Compound A: BcL-XL inhibitor: siRNA, sense 5'-GGUAUUGGUGAGUCGGAUCtt-3' (SEQ ID NO: 4), antisense 5'-GAUCCGACUCACCAAUACCtt-3' (SEQ ID NO: 5) (sense GGUAUUGGUGAGUCGGAUCTT; antisense GAUCCGACUCACCAAUACCTT; chemistry not given here)”, the “suppression of the proliferation of normal cells” value [1] was “neither the BcL-XL inhibitor alone or the miR-345-related molecule alone nor their concurrent use suppressed the proliferation of normal cells” and the “cell proliferation-suppressing effect (cell number)” value [2] was “appeared more strongly in the hsa-miR-345-overexpressing line than in the hsa-miR-345 wild-type line”.
